Earlier results in patent US20250134829A1, “LOW-DOSE, STABLE-RELEASE TRANSDERMAL PREPARATION AND PATCH, AND METHOD FOR THEIR PRODUCTION” (PÉCSI TUDOMÁNYEGYETEM, priority 2022, published 2025).

Key:
[1] = tested on: capsaicin-sensitive sensory nerve endings; conditions: high dose (6-8%) of capsaicin locally
[2] = tested on: patients suffering from low back pain; conditions: topical nonivamide treatment

Row | Structure (SMILES) | duration of disabling of the capsaicin-sensitive sensory nerve endings (desensitization) [1] | plasma level of the neuropeptide somatostatin [2]
1 | COc1cc(CNC(=O)CCCC/C=C/C(C)C)ccc1O [capsaicin] | 2-3 months | 
2 | CCCCCCCCC(=O)NCc1ccc(O)c(OC)c1 [nonivamide] |  | threefold increase
